Legend:
[1] = test system: GBM; assay: Antiproliferative activity against patient-derived GBM cells assessed as cell viability after 48 hrs by 5-Ethynyl-2'-deoxyuridine incorporation assay; assay type: functional, cell-based; details: Homo sapiens
[2] = test system: GBM; assay: Synergistic antiproliferative activity against patient-derived GBM cells assessed as cell viability after 48 hrs in presence of temozolomide by 5-Ethynyl-2'-deoxyuridine incorporation assay; assay type: functional, cell-based; details: Homo sapiens
[3] = test system: GBM; assay: Antiproliferative activity against patient-derived GBM cells assessed as reduction in cell viability after 48 hrs by 5-Ethynyl-2'-deoxyuridine incorporation assay; assay type: functional, cell-based; details: Homo sapiens
[4] = test system: GBM; assay: cells; assay type: functional, cell-based; details: Homo sapiens, 48 h
Description: Synergistic antiproliferative activity against patient-derived GBM cells assessed as reduction in cell viability after 48 hrs in presence of temozolomide by 5-Ethynyl-2'-deoxyuridine incorporation assay

[5] = test system: GBM; assay: Cytotoxicity against patient-derived GBM cells assessed as LDH release after 96 hrs by spectrophotometric method; assay type: functional, cell-based; details: Homo sapiens
[6] = test system: GBM; assay: Selectivity ratio of EC50 for antiproliferative activity against patient-derived GBM cells to EC50 for antiproliferative activity against patient-derived GBM cells in presence of temozolomide; assay type: functional, Homo sapiens
[7] = test system: GBM; assay: Selectivity ratio of IC50 for antiproliferative activity against patient-derived GBM cells to IC50 for antiproliferative activity against patient-derived GBM cells in presence of temozolomide; assay type: functional, Homo sapiens

Row | IC50 [4] [nM] | SMILES | EC50 [1] [nM] | EC50 [2] [nM] | IC50 [3] [nM] | EC50 [5] [nM] | Ratio EC50 [6] | Ratio IC50 [7]
1 | 1 | C[C@@H](Oc1cc(-c2cnn(C3CCN(C4=C(/C=C/C5=[N+](C)c6ccccc6C5(C)C)CCC/C4=C\C=C4\N(C)c5ccccc5C4(C)C)CC3)c2)cnc1N)c1c(Cl)ccc(F)c1Cl.[I-] | 50 | 15 | 4.7 | 93.1 | 3 | –
2 | 480 | C[C@@H](Oc1cc(-c2cnn(C3CCNCC3)c2)cnc1N)c1c(Cl)ccc(F)c1Cl [CRIZOTINIB] | 5600 | 3200 | 540 | 4300 | 1.7 | 1.13

Reference: ChEMBL document CHEMBL4346759, “The synthesis of a novel Crizotinib heptamethine cyanine dye conjugate that potentiates the cytostatic and cytotoxic effects of Crizotinib in patient-derived glioblastoma cell lines” (Bioorg Med Chem Lett, 2019)
